Key:
Type in all cases: in vivo
[1] = test system: Pyricularia oryzae; settings: foliage spray on rice seedlings (cv. […]), number of lesions six days after the inoculation
[2] = test system: Sphaerotheca fuliginea; test: Controlling effect on Sphaerotheca fuliginea by foliage application (pot experiment); settings: foliage spray on cucumber (cv. TSUKUBASHIROIBO) first leaves, infected area after 10 days in greenhouse at 20° C.
Method in brief: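 First leaves of cucumber seedlings, 2-3 weeks old, were sprayed with compound (DMF solution diluted in water with spreader). They were inoculated 24 h later with a Sphaerotheca fuliginea conidia spray and kept 10 days at 20° C in a greenhouse. Percent control was calculated from infected leaf area.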

[3] = test system: Erysiphe graminis f. sp. tritici; test: Controlling effect on Erysiphe graminis f. sp. tritici by foliage application (pot experiment); settings: foliage spray on wheat (cv. NORIN No. 61) seedlings, infected area after 10 days in greenhouse at 20° C.
Method in brief: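 Wheat seedlings (cv. NORIN No. 61, 2-3 weeks old) sprayed with compound in DMF diluted in water with spreader, then inoculated with conidia 24 hours later. Kept in greenhouse at 20 °C for 10 days; percent control calculated from infected leaf area.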

[4] = test system: Puccinia coronata; test: Controlling effect on Puccinia coronata by foliage application (pot experiment); settings: foliage spray on oat (cv. PC-38) seedlings, infected area after 1 day moist chamber and 8 days greenhouse at 20° C.
Procedure: The following Test Examples illustrate the effects of the fungicide of the present invention. (I. Controlling effects on various plant diseases by foliage application (pot experiment)) A test compound was dissolved in a small amount of N,N-dimethylformamide, and the solution was diluted to a given concentration with distilled water containing a spreader. Thus, a liquid sample to be tested was prepared. The liquid sample was sprayed to test plants, and 24 hours thereafter, pathogens were inoculated by the method described below. […] The seeds of oat (cv.: PC-38) were sown in plastic cups (each 9 cm in diameter), followed by cultivation for 2 to 3 weeks. The test compound in the form of a solution or suspension was sprayed to the seedlings. Spores of Puccinia coronata cultured on oat leaves were collected, diluted about 10-fold with talc, and sprayed to the test plants to inoculate the plants with the pathogen. After the inoculation, the plants were kept in a moist chamber at 20° C. for 1 day and then in a greenhouse at 20° C. for 8 days. The infected area on the leaf was observed, and the percent control was calculated.

[5] = test system: Pseudoperonospora cubensis; test: Controlling effect on Pseudoperonospora cubensis by foliage application (pot experiment); settings: foliage spray on cucumber (var. TSUKUBASHIROIBO) first leaves, lesion area after 10 days in moist chamber at 20° C.
Procedure: The following Test Examples illustrate the effects of the fungicide of the present invention. (I. Controlling effects on various plant diseases by foliage application (pot experiment)) A test compound was dissolved in a small amount of N,N-dimethylformamide, and the solution was diluted to a given concentration with distilled water containing a spreader. Thus, a liquid sample to be tested was prepared. The liquid sample was sprayed to test plants, and 24 hours thereafter, pathogens were inoculated by the method described below. […] The seeds of cucumber (var.: […]) were sown in plastic cups (each 9 cm in diameter), followed by cultivation for 2 to 3 weeks. The test compound in the form of a solution or suspension was sprayed to the surface of their first leaves, and a zoosporangia suspension of Pseudoperonospora cubensis cultured on cucumber leaves was dropped on the above leaf surfaces to inoculate the test plants with the pathogen. After the inoculation, the plants were kept in a moist chamber at 20° C. for 10 days. Then, the area of the lesions around the inoculum were observed and the percent control was calculated.

Row | SMILES | Controlling effect on PYricularia orYzae by foliage application at 500 ppm (percent control) [1] [percent control] | Controlling effect on Sphaerotheca fuliginea by foliage application at 500 ppm (percent control) [2] [percent control] | Controlling effect on ErYsiphe graminis f. sp. tritici by foliage application at 500 ppm (percent control) [3] [percent control] | Controllng effect on Puccinia coronata by foliage application at 500 ppm (percent control) [4] [percent control] | Controlling effect on Pseudoperonospora cubensis by foliage application at 500 ppm (percent control) [5] [percent control] | pest or weed control at 500 ppm ([2]; Podosphaera fuliginea, in Cucumis sativus, foliar, 240 h, read-out: Controlling effect on Sphaerotheca fuliginea by foliage application at 500 ppm (percent control)) [%] | pest or weed control at 500 ppm ([3]; Blumeria graminis, foliar, 240 h, read-out: Controlling effect on ErYsiphe graminis f. sp. tritici by foliage application at 500 ppm (percent control)) [%]
1 | CON=C(C1=NOCC1)c1ccccc1COc1cc(C)ccc1C (mixture of isomers) [compound 1236] | 97 | 100 | 90 | 97 |  |  | 
2 | CON=C(c1nnco1)c1ccccc1COc1cccc(C(F)(F)F)c1 [compound 722] | 90 | 100 | 90 | 97 | 100 |  | 
3 | CON=C(c1cnco1)c1ccccc1COc1ccccc1 (mixture of isomers) [compound 1721] |  | 100 | 90 | 70 | 100 |  | 
4 | CON=C(c1ccccc1COc1cc(C)ccc1C)c1nccn1C (single isomer, unassigned) [136B] | 70 | 100 | 70 | 97 |  |  | 
5 | CON=C(c1nnco1)c1ccccc1COc1ccccc1 [compound 701] |  | 100 | 70 | 97 | 100 |  | 
6 | CON=C(c1ccccc1COc1cc(C)ccc1C)c1nccn1C (single isomer, unassigned) [136A] | 90 | 100 | 90 | 100 |  |  | 
7 | CON=C(c1ccccc1COc1ccc(Cl)cc1)n1cncn1 [compound 267] | 90 | 100 | 97 | 90 |  |  | 
8 | CON=C(c1cc(C)no1)c1ccccc1COc1cc(C)ccc1C (single isomer, unassigned) [636A, 2-(2,5-dimethylphenoxymethyl)phenyl 3-methylisoxazol-5-yl ketone O-methyloxime] | 97 |  |  | 100 |  | 97 | 100
9 | CON=C(c1nnco1)c1ccccc1COc1ccccc1C [Compound No. 712] | 90 | 100 | 100 | 100 |  |  | 
10 | CON=C(C1=NCCN1C)c1ccccc1COc1ccccc1C [compound 1112] | 97 | 100 | 90 | 70 |  |  | 
11 | CON=C(c1ccno1)c1ccccc1COc1cc(C)ccc1C (single isomer, unassigned) [536A] |  | 100 | 97 | 90 |  |  | 
12 | CON=C(C1=NCCN1C)c1ccccc1COc1cc(C)ccc1C [Compound No. 1136] |  | 100 | 90 | 90 |  |  | 
13 | CON=C(c1cc(C)on1)c1ccccc1COc1cc(C)ccc1C (mixture of isomers) [Compound No. 436] | 70 | 100 | 90 | 90 |  |  | 
14 | CON=C(c1cc(C)no1)c1ccccc1COc1cc(C)ccc1C (single isomer, unassigned) [636B, 2-(2,5-dimethylphenoxymethyl)phenyl 3-methylisoxazol-5-yl ketone O-methyloxime] | 70 | 100 | 100 | 90 |  |  | 
15 | CON=C(c1ccon1)c1ccccc1COc1ccccc1C (mixture of isomers) [compound 312] | 70 | 100 | 100 | 97 |  |  | 
16 | CON=C(C1=NCCO1)c1ccccc1COc1cc(C)ccc1C [compound 1328] | 90 | 100 | 90 | 70 |  |  | 
17 | CCON=C(c1ccccc1COc1ccccc1)n1cncn1 [compound 275] |  | 100 | 90 | 90 |  |  | 
18 | CON=C(c1noc(C)n1)c1ccccc1COc1cc(C)ccc1C (single isomer, unassigned) [936A] | 97 | 100 | 97 | 90 |  |  | 

Reference: patent US6362212B1, “Oxime derivative and bactericide containing the same as active ingredient” (Shionogi & Company, Ltd., priority 1994, dated 2002)
